According to patent US7112680B2, “Heterocyclic hydrazones for use as anti-cancer agents” (Austria Wirtschaftsservice Gesellschaft MIT Beschrankter …, priority 2000, dated 2006):
Where two headings read alike, the source gives them in different places.

What was measured:
[1] = tested on: HT-29 (colon adenocarcinoma); assay: Inhibition of tumor cell growth, SRB-assay, HT-29; assay type: cell-based, human
Description: (§1) The KB cell lines were grown in Dulbecco's modified Eagle's medium (4,5 g glucose/l). To the cultures of KB-C1 cells 1 μg of colchicine/ml, and to the hydroxyurea-resistant KB-HU cells 1 mM hydroxyurea was added every other week. […] 3,000 - 10,000 cells in 200 μl medium were seeded per well into 96-well plates. […] Approximately 10,000 cells per 100 μl were seeded in 96-well plates. […] The substances were dissolved in dimethylsulfoxide (DMSO). […] Subsequently, the samples were fixed, washed, and the absorption was determined by a microplate reader.

[2] = tested on: multidrug-resistant KB-C1 cells; assay: Inhibition of tumor cell growth, SRB-assay, KB-C1; assay type: cell-based, human
Description: (§2) In order to obtain information about the growth-inhibiting action on tumor cells, the inhibition of the growth of the following human tumor cells was determined: Burkitt's lymphoma (CA 46, ATCC No. CRL 1648), CCRF-CEM (acute lymphoblastic leukemia, ATCC No. CCL 119), K562 (chronic myelogenous leukemia, ATTC No. CCL 243), HeLa (epitheloid cervix carcinoma, ATCC No. CCL 2), MEXF 276L (melanoma), HT-29 (colon adenocarcinoma, ATCC No. HTB 38), KB-3-1 (human oral epidermoid carcinoma, CTCC No. CCL 17), KB-HU hydroxyurea-resistant, multidrug-resistant KB-C1 cells (Akiyama et al, Cell. Mol Genet., 11:117–126, 1985). Burkitt's, CCRF-CEM, HeLa and MEXF 276L cells were grown in RPMI 1640, HT-29 cells in McCoy's 5A medium. The KB cell lines were grown in Dulbecco's modified Eagle's medium (4,5 g glucose/l). To the cultures of KB-C1 cells 1 μg of colchicine/ml, and to the hydroxyurea-resistant KB-HU cells 1 mM hydroxyurea was added every other week. The media were supplemented with 10% fetal calf serum (except Burkitt's lymphoma cells with 15%), 2 mM glutamine, 50 units/ml penicillin and 50 μg/ml streptomycin. Inhibition of growth of HeLa, HT-29, KB and MEXF 276L cells was detected by the SRB-assay (Skehan et al, J. Natl Cancer Inst., 82:1107–1112, 1990). 3,000 - 10,000 cells in 200 μl medium were seeded per well into 96-well plates. Dose-response curves for CCRF-CEM and Burkitt's lymphoma cells were effected by an MTT-assay (Mosman, J. Immunol Methods, 65:55–63, 1983) from Boehringer Mannheim, Mannheim, Germany. Approximately 10,000 cells per 100 μl were seeded in 96-well plates. After an initial incubation of four hours, various substance concentrations were added, and the cells were incubated at 37° C. in a water-saturated atmosphere of 95% air and 5% CO2 for 72 hours. The substances were dissolved in dimethylsulfoxide (DMSO). The concentration of DMSO was 0.5%, and this was not toxic to the cells. Subsequently, the samples were fixed, washed, and the absorption was determined by a microplate reader.

[3] = tested on: KB-3-1 (human oral epidermoid carcinoma); assay: Inhibition of tumor cell growth, SRB-assay, KB-3-1; assay type: cell-based
Description: as §2

[4] = tested on: KB-HU hydroxyurea-resistant cells; assay: Inhibition of tumor cell growth, SRB-assay, KB-HU; assay type: cell-based, human
Description: as §2

[5] = tested on: HeLa (epitheloid cervix carcinoma); assay: Inhibition of tumor cell growth, SRB-assay, HeLa; assay type: cell-based, human
[6] = tested on: Burkitt's lymphoma (CA 46, ATCC No. CRL 1648); assay: Inhibition of tumor cell growth, MTT-assay, Burkitt's lymphoma; assay type: cell-based, human
Description: as §1

[7] = tested on: human tumor grafts (cell lines of FIG. 1); assay: Colony forming assay (two-layer soft agar); assay type: cell-based; conditions: for tumor type selectivity: colony forming assay, IC70 pattern, FIG. 1; for IC50 / IC90 / Mean IC70: mean values of all cell lines tested in FIG. 1, continuous exposure 3 to 6 days
Description: An excellent correlation of drug response in patients and the colony forming assay has been found (Scholz et al, Eur. J. Cancer 25:901–905, 1990). Solid human tumors were grown as grafts in nude mice, removed from the latter, mechanically comminuted and subsequently incubated in an enzyme cocktail consisting of collagenase (1.2–1.8 U/ml), DNAse (375 U/ml) and hyaluronidase (29 U/ml) in RPMI 1640 medium at 37° C. for 30 minutes. The cell mixture was passed through sieves of 200 μm and 50 μm mesh size and washed thereafter twice with PBS (phosphate buffered saline). The percentage of live cells was determined using a Neubauer counting chamber and trypan blue staining.
The colony forming assay was performed according to a two-layer agar technique introduced and modified by Hamburger and Salmon (Hamburger and Salmon, Science, 197:461–463, 1977). The bottom layer consisted of 0.2 ml of Iscoves's Modified Dulbecco's medium with 20% fetal calf serum and 0.75% agar. 8×10^3 to 1.6×10^4 cells were added to the same medium and 0.4% agar and plated in 24-multiwell plates onto the base layer. One day after the plating (with continuous exposure), the substances were added in 0.2 ml medium. Each plate included six controls containing the solvent only, and the treated groups contained 6 concentrations of the substances, each in triplicate. Cultures were incubated at 37° C. and 7% CO2 in a water-saturated atmosphere for 3 to 6 days, depending on the doubling time of the tumor cells. At the time of maximum colony formation with a size of […], counts were performed with an automatic image analysis system. 24 h prior to counting, live colonies were stained with a sterile aqueous solution of 2-(4-iodophenyl)-3-(4-nitrophenyl)-5-phenyltetrazolium chloride (1 mg/ml, 100 μl/well). The results of the tests are given in FIG. 1, and in the following Table 5, respectively. […] Columns pointing towards the right show a slighter than average activity.

[8] = Table 4, 72 hours, read-out: In vitro-activity against human tumor cell lines, HT-29
[9] = Table 4, 72 hours, read-out: In vitro-activity against human tumor cell lines, KB-C1
[10] = Table 4, 72 hours, read-out: In vitro-activity against human tumor cell lines, KB-3-1
[11] = Table 4, 72 hours, read-out: In vitro-activity against human tumor cell lines, KB-HU
[12] = Table 4, 72 hours, read-out: In vitro-activity against human tumor cell lines, HeLa
[13] = Table 4, 72 hours, read-out: In vitro-activity against human tumor cell lines, Burkitts
[14] = Table 1, 72 hours, read-out: IC50 HT-29 (converted)
[15] = Table 1, 72 hours, read-out: IC50 HeLa (converted)
[16] = Table 1, 72 hours, read-out: IC50 Burkitts
[17] = Table 1, 72 hours, read-out: IC50 KB-Cl
[18] = Table 1, 72 hours, read-out: IC50 KB-3-1
[19] = Table 1, 72 hours, read-out: IC50 KB-HU

IC50 [1, 8] [nM]	IC50 [2, 9] [nM]	IC50 [3, 10] [nM]	IC50 [4, 11] [nM]	IC50 [5, 12] [nM]	IC50 [1, 14] [nM]	IC50 [5, 15] [nM]	IC50 [2, 17] [nM]	SMILES	other results
800	1800	490	2230	380	–	–	–	CC(=NNc1nc2ccccc2n1C)c1cccc(C)n1 [Id-10]	IC50 [6, 13]: 110 nM
–	160	260	460	–	–	–	–	CC(=NNc1nc2ccccc2n1C)c1ncccc1C [Id-7]	–
–	100	30	20	–	–	–	–	CC(=NNc1nc2ccccc2n1C)c1cc(C)ccn1 [Id-8]	tumor type selectivity [7]: selectivity for colon, breast, ovarian, and uterus tumors; IC50 [7]: 102 nM; IC90 [7]: 2380 nM; Mean IC70 [7]: 317 nM
120	160	50	40	50	–	–	–	COc1ccnc(C(C)=NNc2nc3ccccc3n2C)c1 [Id-2]	tumor type selectivity [7]: selectivity for colon, breast, ovarian, and uterus tumors; IC50 [7]: 80 nM; IC90 [7]: 2850 nM; Mean IC70 [7]: 261 nM
250	180	250	190	180	–	–	–	CC(=NNc1nc2ccccc2n1C)c1ccc(-c2ccccc2)cn1 [Id-16]	IC50 [7]: 965 nM; IC90 [7]: 7450 nM; Mean IC70 [7]: 2084 nM; IC50 [6, 13]: 30 nM
70	1420	550	700	70	–	–	–	CC(=NNc1nc2ccccc2n1C)c1ncccc1-c1ccccc1 [Id-14]	IC50 [6, 13]: 10 nM

The next lines start with the compound.

SMILES	IC50 [1, 8] [nM]	IC50 [2, 9] [nM]	IC50 [3, 10] [nM]	IC50 [4, 11] [nM]	IC50 [5, 12] [nM]	IC50 [1, 14] [nM]	IC50 [5, 15] [nM]	IC50 [2, 17] [nM]	other results
Cn1c(NN=Cc2ccccn2)nc2ccccc21 [Ia-2]	–	–	–	–	–	270	80	–	IC50 [6, 16]: 30 nM
CC(=NNc1nc2ccccc2[nH]1)c1ccccn1 [Ia-4, 1-(2-Pyridyl)-1-ethanon-1(1H-benzo[d]imidazol-2-yl)-hydrazone]	–	–	–	–	–	–	–	–	IC50 ([1]; Homo sapiens, HT-29, Table 1, 72 hours, read-out: IC50 HT-29 (converted)): 490 nM; IC50 ([2]; Homo sapiens, KBC-1, Table 1, 72 hours, read-out: IC50 KB-Cl): 1970 nM; IC50 ([3]; Homo sapiens, KB 3-1, Table 1, 72 hours, read-out: IC50 KB-3-1): 510 nM; IC50 ([4]; Homo sapiens, Table 1, 72 hours, read-out: IC50 KB-HU): 900 nM; IC50 ([5]; Homo sapiens, HeLa, Table 1, 72 hours, read-out: IC50 HeLa (converted)): 70 nM; IC50 ([6]; Homo sapiens, CA46, Table 1, 72 hours, read-out: IC50 Burkitts): 44 nM
CC(=NNc1nc2ccccc2o1)c1ccccn1 [Ia-6]	–	–	–	–	–	130	23	610	IC50 [3, 18]: 210 nM; IC50 [4, 19]: 320 nM; IC50 [6, 16]: 9 nM
C(=NNc1nc2ccccc2o1)c1ccccn1 [Ia-3]	–	–	–	–	–	1440	25	770	IC50 [3, 18]: 480 nM; IC50 [4, 19]: 610 nM; IC50 [6, 16]: 5 nM
c1ccc(C(=NNc2nc3ccccc3[nH]2)c2ccccn2)nc1 [Ia-36]	–	–	–	–	–	1360	1430	2110	–
CC(C)C(=NNc1nc2ccccc2[nH]1)c1ccccn1 [Ia-15]	–	–	–	–	–	520	21	1980	IC50 [3, 18]: 700 nM; IC50 [4, 19]: 1 nM
